The structures appear in SMILES notation. Where a name gives a salt, the structure may show the parent alone.

These results are taken from patent US20090264433A1, “Compounds, Compositions and Methods Comprising Triazine Derivatives” (Institute for OneWorld Health, priority 2008, published 2009).

T1 sequence (P13569 whole entry): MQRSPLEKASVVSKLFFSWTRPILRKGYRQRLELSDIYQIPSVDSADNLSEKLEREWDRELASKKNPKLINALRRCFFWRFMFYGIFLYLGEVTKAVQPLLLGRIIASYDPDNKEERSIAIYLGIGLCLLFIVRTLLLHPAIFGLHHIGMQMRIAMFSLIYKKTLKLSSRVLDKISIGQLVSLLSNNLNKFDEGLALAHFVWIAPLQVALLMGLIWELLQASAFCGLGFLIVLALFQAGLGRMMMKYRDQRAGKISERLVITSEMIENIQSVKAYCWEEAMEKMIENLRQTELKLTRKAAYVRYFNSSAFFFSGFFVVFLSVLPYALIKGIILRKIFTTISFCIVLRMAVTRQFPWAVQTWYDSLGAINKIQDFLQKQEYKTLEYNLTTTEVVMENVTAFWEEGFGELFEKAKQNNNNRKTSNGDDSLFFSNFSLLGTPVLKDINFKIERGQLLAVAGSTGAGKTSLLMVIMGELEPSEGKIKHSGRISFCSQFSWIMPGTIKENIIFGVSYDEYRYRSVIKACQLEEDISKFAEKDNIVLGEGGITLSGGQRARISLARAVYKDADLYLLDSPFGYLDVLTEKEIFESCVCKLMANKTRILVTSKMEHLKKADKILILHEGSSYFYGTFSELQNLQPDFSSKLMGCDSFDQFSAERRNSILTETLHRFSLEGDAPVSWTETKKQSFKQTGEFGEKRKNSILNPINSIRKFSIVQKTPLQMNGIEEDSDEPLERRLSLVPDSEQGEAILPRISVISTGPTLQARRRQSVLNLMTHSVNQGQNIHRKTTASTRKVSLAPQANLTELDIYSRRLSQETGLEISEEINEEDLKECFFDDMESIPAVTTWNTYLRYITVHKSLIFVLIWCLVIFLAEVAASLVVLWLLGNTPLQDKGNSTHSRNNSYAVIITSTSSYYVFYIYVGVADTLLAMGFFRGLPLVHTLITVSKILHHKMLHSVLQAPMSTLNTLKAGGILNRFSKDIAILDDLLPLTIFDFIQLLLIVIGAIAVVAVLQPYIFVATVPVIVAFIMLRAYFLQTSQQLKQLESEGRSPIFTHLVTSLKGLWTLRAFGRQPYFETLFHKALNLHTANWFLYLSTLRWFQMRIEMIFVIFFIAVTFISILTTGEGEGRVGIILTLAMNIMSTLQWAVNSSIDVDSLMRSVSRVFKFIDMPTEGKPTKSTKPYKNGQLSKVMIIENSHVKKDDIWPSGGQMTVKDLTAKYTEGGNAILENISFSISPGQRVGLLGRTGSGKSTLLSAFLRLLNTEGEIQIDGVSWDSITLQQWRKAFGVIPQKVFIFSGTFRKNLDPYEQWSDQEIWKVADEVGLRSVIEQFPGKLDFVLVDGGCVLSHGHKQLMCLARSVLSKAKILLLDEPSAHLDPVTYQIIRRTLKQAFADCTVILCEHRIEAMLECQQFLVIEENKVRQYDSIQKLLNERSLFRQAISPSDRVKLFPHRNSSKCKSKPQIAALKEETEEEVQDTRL

This assay has as its target T1, CFTR channel in human colonic T84 cells (Homo sapiens, UniProt P13569).
T1 construct: results in the phosphorylation and opening of CFTR anion channels; host or cells: human colonic T84 cells
In words: T84 assay (FLIPR membrane potential dye, forskolin/IBMX-stimulated CFTR). It counts as cell-based. The settings on record: average of at least 2 runs unless annotated n = 1. An outline of the steps: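 T84 cells (25,000/well, grown overnight) were washed in HBSS with 10 mM Hepes, then loaded with FLIPR Red membrane potential dye for 45 min with or without compound. CFTR was stimulated with 10 μM forskolin plus 100 μM IBMX after a 10 s baseline. Depolarization was tracked as a fluorescence increase, read every second for 150 s.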
Molecule `CN(C)CCOc1ccc(CN(C)Cc2ccc(COc3ncc(-c4cc(Cl)c(O)c(Cl)c4)nn3)cc2)cc1` [Compound 198, 2,6-dichloro-4-(3-(4-(((4-(2-(dimethylamino)ethoxy)benzyl)(methyl)amino)methyl)benzyloxy)-1,2,4-triazin-6-yl)phenol] showed an IC50 of 9.94 µM.
As for `CN(C)CCCOc1ccc(CN(C)Cc2ccc(COc3ncc(-c4cc(Cl)c(O)c(Cl)c4)nn3)cc2)cc1` [Compound 199, 2,6-dichloro-4-(3-(4-(((4-(3-(dimethylamino)propoxy)benzyl)(methyl)amino)methyl)benzyl-oxy)-1,2,4-triazin-6-yl)phenol], the figure is 7.54 µM; as for `CN(Cc1ccc(COc2ncc(-c3cc(Cl)c(O)c(Cl)c3)nn2)cc1)Cc1cccc(CN2CCOCC2)c1` [Compound 200, 2,6-dichloro-4-(3-(4-((methyl(3-(morpholinomethyl)benzyl)amino)methyl)benzyloxy)-1,2,4-triazin-6-yl)phenol], 5.89 µM; as for `CN1CCCN(Cc2ccc(CN(C)Cc3ccc(COc4ncc(-c5cc(Cl)c(O)c(Cl)c5)nn4)cc3)cc2)CC1` [Compound 201, 2,6-dichloro-4-(3-(4-((methyl(4-((4-methyl-1,4-diazepan-1-yl)methyl)benzyl)amino)methyl)benzyloxy)-1,2,4-triazin-6-yl)phenol], 9.99 µM.
In turn, `CN(Cc1ccc(COc2ncc(-c3cc(Cl)c(O)c(Cl)c3)nn2)cc1)Cc1ccc(-c2ncccn2)cc1` [Compound 202, 2,6-dichloro-4-(3-(4-((methyl(4-(pyrimidin-2-yl)benzyl)amino)methyl)benzyl-oxy)-1,2,4-triazin-6-yl)phenol] returned an IC50 of 1.87 µM.
As for `Cc1cncc(Oc2cccc(CN(C)Cc3ccc(COc4ncc(-c5cc(Cl)c(O)c(Cl)c5)nn4)cc3)c2)n1` [Compound 203, 2,6-dichloro-4-(3-(4-((methyl(3-(6-methylpyrazin-2-yloxy)benzyl)amino)methyl)benzyloxy)-1,2,4-triazin-6-yl)phenol], the figure is 2.43 µM; as for `CN(C)CCCOc1cccc(CN(C)Cc2ccc(COc3ncc(-c4cc(Cl)c(O)c(Cl)c4)nn3)cc2)c1` [Compound 204, 2,6-dichloro-4-(3-(4-(((3-(3-(dimethylamino)propoxy)benzyl)(methyl)amino)methyl)benzyl-oxy)-1,2,4-triazin-6-yl)phenol], 2.43 µM; as for `CN(Cc1ccc(COc2ncc(-c3cc(Cl)c(O)c(Cl)c3)nn2)cc1)Cc1cccc(-c2ncccn2)c1` [Compound 205, 2,6-dichloro-4-(3-(4-((methyl(3-(pyrimidin-2-yl)benzyl)amino)methyl)benzyl-oxy)-1,2,4-triazin-6-yl)phenol], 4.18 µM.
As for `CN(Cc1ccc(COc2ncc(-c3cc(Cl)c(O)c(Cl)c3)nn2)cc1)Cc1cccc(-c2cncnc2)c1` [Compound 206, 2,6-dichloro-4-(3-(4-((methyl(3-(pyrimidin-5-yl)benzyl)amino)methyl)benzyl-oxy)-1,2,4-triazin-6-yl)phenol], the figure is 9.6 µM.
As for `CN(Cc1ccc(COc2ncc(-c3cc(Cl)c(O)c(Cl)c3)nn2)cc1)Cc1ccc(-c2cncnc2)cc1` [Compound 207, 2,6-dichloro-4-(3-(4-((methyl(4-(pyrimidin-5-yl)benzyl)amino)methyl)benzyl-oxy)-1,2,4-triazin-6-yl)phenol], the figure is 2.99 µM; as for `CN(Cc1ccc(COc2ncc(-c3cc(Cl)c(O)c(Cl)c3)nn2)cc1)Cc1ccc(CN2CCCCC2)cc1` [Compound 208, 2,6-dichloro-4-(3-(4-((methyl(4-(piperidin-1-ylmethyl)benzyl)amino)methyl)benzyloxy)-1,2,4-triazin-6-yl)phenol, formate salt], 8.24 µM.
Molecule `Cc1cncc(Oc2ccc(CN(C)Cc3ccc(COc4ncc(-c5cc(Cl)c(O)c(Cl)c5)nn4)cc3)cc2)n1` [Compound 209, 2,6-dichloro-4-(3-(4-((methyl(4-(6-methylpyrazin-2-yloxy)benzyl)amino)methyl)benzyloxy)-1,2,4-triazin-6-yl)phenol] came in with an IC50 of 4.8 µM.
As for `CN(Cc1ccc(COc2ncc(-c3cc(Cl)c(O)c(Cl)c3)nn2)cc1)Cc1ccc(-c2ccc(C(F)(F)F)cn2)cc1` [Compound 210, 2,6-dichloro-4-(3-(4-((methyl(4-(5-(trifluoromethyl)pyridin-2-yl)benzyl)amino)methyl)benzyloxy)-1,2,4-triazin-6-yl)phenol], the figure is 6.42 µM; as for `CN(Cc1ccc(COc2ncc(-c3cc(Cl)c(O)c(Cl)c3)nn2)cc1)Cc1ccc(CN2CCCC2)cc1` [Compound 211, 2,6-dichloro-4-(3-(4-((methyl(4-(pyrrolidin-1-ylmethyl)benzyl)amino)methyl)benzyloxy)-1,2,4-triazin-6-yl)phenol, diformate salt], 8.04 µM; as for `CN(Cc1ccc(COc2ncc(-c3cc(Cl)c(O)c(Cl)c3)nn2)cc1)Cc1cccc(CN2CCCC2)c1` [Compound 212, 2,6-dichloro-4-(3-(4-((methyl(3-(pyrrolidin-1-ylmethyl)benzyl)amino)methyl)benzyloxy)-1,2,4-triazin-6-yl)phenol, formate salt], 4.9 µM.
As for `CN(Cc1ccc(COc2ncc(-c3cc(Cl)c(O)c(Cl)c3)nn2)cc1)Cc1cccc(-c2cccnc2)c1` [Compound 213, 2,6-dichloro-4-(3-(4-((methyl(3-(pyridin-3-yl)benzyl)amino)methyl)benzyl-oxy)-1,2,4-triazin-6-yl)phenol], the figure is 4.31 µM; as for `CN(Cc1ccc(COc2ncc(-c3cc(Cl)c(O)c(Cl)c3)nn2)cc1)Cc1ccc(OCCN2CCOCC2)cc1` [Compound 214, 2,6-dichloro-4-(3-(4-((methyl(4-(2-morpholinoethoxy)benzyl)amino)methyl)benzyloxy)-1,2,4-triazin-6-yl)phenol], 5.19 µM; as for `OCCN(Cc1ccc(COc2ncc(-c3cc(Cl)c(O)c(Cl)c3)nn2)cc1)Cc1cccc(Cl)c1Cl` [Compound 215, 2,6-dichloro-4-(3-(4-(((2,3-dichlorobenzyl)(2-hydroxyethyl)amino)methyl)benzyloxy)-1,2,4-triazin-6-yl)phenol], 4.54 µM.
As for `CC(=O)N1CCN(Cc2ccc(COc3ncc(-c4cc(Cl)c(O)c(Cl)c4)nn3)cc2)CC1` [Compound 216, 1-(4-(4-((6-(3,5-dichloro-4-hydroxyphenyl)-1,2,4-triazin-3-yloxy)methyl)benzyl)piperazin-1-yl)ethanone], the figure is 23.2 µM; as for `O=C(c1ccco1)N1CCN(Cc2ccc(COc3ncc(-c4cc(Cl)c(O)c(Cl)c4)nn3)cc2)CC1` [Compound 217, (4-(4-((6-(3,5-dichloro-4-hydroxyphenyl)-1,2,4-triazin-3-yloxy)methyl)benzyl)piperazin-1-yl)(furan-2-yl)methanone], 4.47 µM; as for `O=C(c1ccccc1)N1CCN(Cc2ccc(COc3ncc(-c4cc(Cl)c(O)c(Cl)c4)nn3)cc2)CC1` [Compound 218, (4-(4-((6-(3,5-dichloro-4-hydroxyphenyl)-1,2,4-triazin-3-yloxy)methyl)benzyl)piperazin-1-yl)(phenyl)methanone], 3.8 µM.
The molecule `O=C(C1CC1)N1CCN(Cc2ccc(COc3ncc(-c4cc(Cl)c(O)c(Cl)c4)nn3)cc2)CC1` [Compound 219, cyclopropyl(4-(4-((6-(3,5-dichloro-4-hydroxyphenyl)-1,2,4-triazin-3-yloxy)methyl)benzyl)piperazin1-yl)methanone] gave an IC50 of 12.4 µM.
With `O=C(c1ccccc1Cl)N1CCN(Cc2ccc(COc3ncc(-c4cc(Cl)c(O)c(Cl)c4)nn3)cc2)CC1` [Compound 220, (2-chlorophenyl)(4-(4-((6-(3,5-dichloro-4-hydroxyphenyl)-1,2,4-triazin-3-yloxy)methyl)benzyl)piperazin1-yl)methanone], the IC50 was determined as 1.89 µM.
Consider `CCC(=O)N1CCN(Cc2ccc(COc3ncc(-c4cc(Cl)c(O)c(Cl)c4)nn3)cc2)CC1` [Compound 221, 1-(4-(4-((6-(3,5-dichloro-4-hydroxyphenyl)-1,2,4-triazin-3-yloxy)methyl)benzyl)piperazin-1-yl)propan-1-one], for which inhibition was half-maximal at 17.4 µM (IC50).
As for `CN(Cc1ccc(COc2ncc(-c3cc(Cl)c(O)c(Cl)c3)nn2)cc1)Cc1cccnc1` [Compound 222, 2,6-dichloro-4-(3-(4-((methyl(pyridin-3-ylmethyl)amino)methyl)benzyl-oxy)-1,2,4-triazin-6-yl)phenol], the figure is 11.2 µM.
As for `OCCN(Cc1ccc(COc2ncc(-c3cc(Cl)c(O)c(Cl)c3)nn2)cc1)Cc1cccc(OCc2ccccc2Cl)c1` [Compound 223, 2,6-dichloro-4-(3-(4-(((3-(2-chlorobenzyloxy)benzyl)(2-hydroxyethyl)amino)methyl)benzyloxy)-1,2,4-triazin-6-yl)phenol], the figure is 3.55 µM; as for `O=C(c1cccnc1)N1CCN(Cc2ccc(COc3ncc(-c4cc(Cl)c(O)c(Cl)c4)nn3)cc2)CC1` [Compound 224, (4-(4-((6-(3,5-dichloro-4-hydroxyphenyl)-1,2,4-triazin-3-yloxy)methyl)benzyl)piperazin-1-yl)(pyridin-3-yl)methanone], 11.8 µM.
As for `Cc1csc(CC(=O)N2CCN(Cc3ccc(COc4ncc(-c5cc(Cl)c(O)c(Cl)c5)nn4)cc3)CC2)n1` [Compound 225, 1-(4-(4-((6-(3,5-dichloro-4-hydroxyphenyl)-1,2,4-triazin-3-yloxy)methyl)benzyl)piperazin-1-yl)-2-(4-methylthiazol-2-yl)ethanone], the figure is 11.1 µM.

Usually IC50 stands for the point on the concentration scale where inhibition reaches its midpoint.
